Data taken from ChEMBL document CHEMBL1130641, “5,5-trans lactone-containing inhibitors of serine proteases: identification of a novel, acylating thrombin inhibitor” (Bioorg Med Chem Lett, 1998).
pIC50: −log10 of the molar value.

Columns and labels:
Prothrombin = Prothrombin (Homo sapiens, UniProt P00734); assay: Inhibition of thrombin
Serine protease 1 = Serine protease 1 (Homo sapiens, UniProt P07477); assay: Inhibition of trypsin
Coagulation factor X = Coagulation factor X (Homo sapiens, UniProt P00742); assay: Compound was evaluated for the inhibition of Coagulation factor X
Neutrophil elastase = molecular target: T1, Neutrophil elastase (Homo sapiens, UniProt P08246); assay: Compound was evaluated for the inhibition of human leukocyte elastase(HLE).
T1 sequence (P08246 whole entry): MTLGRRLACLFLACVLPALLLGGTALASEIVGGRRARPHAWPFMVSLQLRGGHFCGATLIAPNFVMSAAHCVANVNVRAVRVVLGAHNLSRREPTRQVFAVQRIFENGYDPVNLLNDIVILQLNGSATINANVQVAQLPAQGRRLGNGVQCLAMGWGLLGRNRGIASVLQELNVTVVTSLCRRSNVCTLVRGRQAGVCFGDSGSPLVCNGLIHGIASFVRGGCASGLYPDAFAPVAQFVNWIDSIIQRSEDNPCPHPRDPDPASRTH

Chain of Serine protease 1 (P07477 whole entry): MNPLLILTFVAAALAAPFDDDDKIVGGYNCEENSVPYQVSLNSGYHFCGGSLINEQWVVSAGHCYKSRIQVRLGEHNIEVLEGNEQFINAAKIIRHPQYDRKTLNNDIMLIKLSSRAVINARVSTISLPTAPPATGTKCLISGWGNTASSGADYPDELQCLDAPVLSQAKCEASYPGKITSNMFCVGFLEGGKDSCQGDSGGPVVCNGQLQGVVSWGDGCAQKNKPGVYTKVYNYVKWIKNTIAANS
Chain of Coagulation factor X (P00742 41-179 limits assumed): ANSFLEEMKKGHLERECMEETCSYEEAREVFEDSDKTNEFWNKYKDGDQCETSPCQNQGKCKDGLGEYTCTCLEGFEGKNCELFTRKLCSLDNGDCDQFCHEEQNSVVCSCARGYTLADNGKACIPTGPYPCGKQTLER
Chain of Coagulation factor X (P00742 235-488 limits assumed): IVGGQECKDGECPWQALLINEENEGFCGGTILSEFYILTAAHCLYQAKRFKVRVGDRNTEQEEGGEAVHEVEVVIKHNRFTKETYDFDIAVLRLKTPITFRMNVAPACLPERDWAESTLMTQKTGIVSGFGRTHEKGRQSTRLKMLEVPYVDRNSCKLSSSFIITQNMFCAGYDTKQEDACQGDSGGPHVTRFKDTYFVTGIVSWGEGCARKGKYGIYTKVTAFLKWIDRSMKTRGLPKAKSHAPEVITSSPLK

| SMILES | pIC50 (Prothrombin) | pIC50 (Serine protease 1) | pIC50 (Coagulation factor X) | pIC50 (Neutrophil elastase) |
| --- | --- | --- | --- | --- |
| C=CC[C@H]1C(=O)O[C@H]2CCC[C@@H]21 | < 4.30 | – | – | – |
| O=C1O[C@H]2CCC[C@@H]2[C@@H]1Cc1ccccc1 | 4.14 | – | – | – |
| CC(C)=CC(=O)C[C@@H]1C(=O)O[C@H]2CCC[C@@H]21 | 7.68 | – | – | – |
| O=C1O[C@H]2CCC[C@@H]2[C@H]1Cc1ccccc1 | 4.04 | – | – | – |
| C=CC[C@@H]1C(=O)O[C@H]2CCC[C@@H]21 | 4.01 | – | – | – |
| N=C(N)c1cccc(C[C@H]2C(=O)O[C@H]3CCC[C@@H]32)c1 | < 4.00 | 5.48 | – | – |
| CC(C)=CC(=O)C[C@@H]1C(=O)O[C@H]2CCCC21 (some centres not stated) | 7.72 | – | – | – |
| N=C(N)CCCC[C@H]1C(=O)O[C@H]2CCC[C@@H]21 | 6.89 | 7.40 | 4.99 | – |
| N=C(N)c1ccc(C[C@H]2C(=O)O[C@H]3CCC[C@@H]32)cc1 | 4.77 | 6.66 | – | – |
| CC(C)=CC(=O)C[C@H]1C(=O)O[C@H]2C[C@]3(C)C4=CC[C@@H]5[C@](C)(CC[C@H]6OC(=O)[C@@]56C)[C@H]4CC[C@@]3(C)[C@@H]21 | 7.34 | 7.15 | < 4.70 | < 5.00 |
